{
  "source": "patent US5196446A",
  "about": "(priority 1991, dated 1993)",
  "key": {"other protein kinases": {"system": "other protein kinases", "details": "PTK inhibitors which compete with ATP; cited from earlier work"}, "[1]": {"details": "as a result of inhibiting other protein kinases; cited from earlier work"}, "[2]": {"target": "T1, EGF receptor tyrosine kinase (Homo sapiens, UniProt P00533)", "T1 construct": "WGA-purified EGF receptor from A431 cells; endogenous in cells; host or cells: A431 cells (solubilized, receptor enriched on WGA-agarose)", "format": "biochemical", "details": "for IC50: read-out: IC50 (concentration of inhibitor required to inhibit 50% of polyGAT phosphorylation)"}, "[3]": {"system": "cyclic adenosine 3',5'-monophosphate (cAMP)-dependent protein kinase", "details": "in words; compared with EGF receptor autophosphorylation; cited from earlier work"}, "EGF receptor [4]": {"target": "T2, EGF receptor (Homo sapiens, UniProt P00533)", "design": "EGF receptor in membranes of A431 cells; host or cells: membranes of A431 cells", "details": "cited from earlier work"}, "EGF receptor [5]": {"target": "T2, EGF receptor", "details": "read-out: Km for ATP in autophosphorylation; 15° C.; 10-s assay", "method": "ATP and EGF Dependence of Autophosphorylation\nWith use of the 10-s assay protocol, the EGF concentration dependence of EGFRK autophosphorylation is determined."}, "EGF receptor [6]": {"target": "T2, EGF receptor", "assay": "Inhibition of EGFR autophosphorylation (A431 cell lysate, EGF stimulation)", "format": "biochemical", "design": "EGF receptor in membranes of A431 cells; host or cells: membranes of A431 cells", "method": "Inhibition of EGFR Autophosphorylation\nA431 cells were grown to confluence on human fibronectin coated tissue culture dishes. After washing 2 times with ice-cold PBS, cells were lysed by the addition of 500 μl/dish of lysis buffer (50 mmol Hepes, pH 7.5, 150 mmol NaCl, 1.5 mmol Mg Cl2, 1 mmol EGTA, 10% glycerol, 1% triton X-100, 1 mmol PMSF, 1 mg/ml aprotinin, I mg/ml leupeptin) and incubating 5 minutes at 4° C. After EGF stimulation ([…] 10 minutes at 37° C.) immunoprecipitation was performed with anti EGF-R (Ab 108) and the autophosphorylation reaction (50 μl aliquots, 3 μCi [γ-^32 P]ATP) sample was carried out in the presence of 2 or 10 μM of compound, for 2 minutes at 4° C. The reaction was stopped by adding hot electrophoresis sample buffer. SDS-PAGE analysis (7.5% els) was followed by autoradiography and the reaction was quantitated by densitometry scanning of the x-ray films. In order to test the compounds for selective inhibition, the procedure is repeated using PDGF stimulation in place of EGF stimulation."}},
  "data": [
    {"smiles": "O=c1c(O)c(-c2ccc(O)c(O)c2)oc2cc(O)cc(O)c12", "note": "[quercetin]", "values": [
      {"measurement": "inhibition of other protein kinases", "setting": "other protein kinases", "value": "inhibit other protein kinases"},
      {"measurement": "cytotoxicity", "setting": "[1]", "value": "highly cytotoxic"}
    ]},
    {"smiles": "N#CC(C#N)=Cc1c[nH]cn1", "note": "[Example 3, 4-Imidazolidene malononitrile]", "values": [
      {"measurement": "IC50", "setting": "[2]", "value": 2600, "unit": "µM"}
    ]},
    {"smiles": "N#CC(C#N)=Cc1ccc2[nH]ccc2c1", "note": "[Example 5, 5-Indolidene malononitrile]", "values": [
      {"measurement": "IC50", "setting": "[2]", "value": 2200, "unit": "µM"}
    ]},
    {"smiles": "O=CN/C=C/c1cc(O)ccc1O", "note": "[erbstatin]", "values": [
      {"measurement": "concentration required to inhibit cAMP-dependent protein kinase", "setting": "[3]", "value": "much higher concentrations"},
      {"measurement": "concentration required to inhibit EGF receptor autophosphorylation", "setting": "EGF receptor [4]; in words, compared with cAMP-dependent protein kinase", "value": "Low concentrations"},
      {"measurement": "inhibition of EGF receptor autophosphorylation", "setting": "EGF receptor [4]; membranes of A431 cells", "value": "inhibits the autophosphorylation of the EGF receptor"}
    ]},
    {"smiles": "Nc1ncnc2c1ncn2[C@@H]1O[C@H](COP(=O)(O)OP(=O)(O)OP(=O)(O)O)[C@@H](O)[C@H]1O", "note": "[ATP, adenosine triphosphate]", "values": [
      {"measurement": "Km", "setting": "[2]; read-out: Km for ATP in the poly(GAT) assay", "value": 2.9, "unit": "µM"},
      {"measurement": "Km", "setting": "EGF receptor [5]", "value": 7.2, "unit": "µM"}
    ]},
    {"smiles": "O=c1c(-c2ccc(O)cc2)coc2cc(O)cc(O)c12", "note": "[genistein]", "values": [
      {"measurement": "inhibition of other protein kinases", "setting": "other protein kinases", "value": "inhibit other protein kinases"},
      {"measurement": "cytotoxicity", "setting": "[1]", "value": "highly cytotoxic"}
    ]},
    {"smiles": "N#CC(=Cc1ccc2c(c1)OCO2)c1ccccn1", "note": "[Example 8, 2-(2-pyridyl)-3-[3,4-(methylenedioxy)phenyl]-2-propenenitrile]", "values": [
      {"measurement": "IC50", "setting": "EGF receptor [6]", "value": 1, "unit": "µM"}
    ]}
  ]
}
